The values below are quoted from earlier work in patent US12237054B2, “Model for high-throughput screening of endocrine disruptor and method for screening same” (Nanjing University, priority 2018, dated 2025).

This data set concerns HEK293T. The following applies: standardized Activity value, data from public databases (ToxCast/Tox21, ChEMBL).

In the case of `CC(C)C(=O)Nc1ccc([N+](=O)[O-])c(C(F)(F)F)c1` [Flutamide], the cytotoxicity experimental value is reported as 4.4.
